Measured values reported in ChEMBL document CHEMBL1201862, “PubChem BioAssay data set” (2004).
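Values below derive from 48-hour exposures of cells grown in 96-well plates, with endpoints linearly interpolated between the two concentrations bracketing the appropriate inhibition level. GI50 marks 50% less growth.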 Active and inactive are the calls of the source. Rule as the data show it: active = GI50 up to about 1.1 µM and inactive = higher.

What was measured:
Experiment in all cases: NCI-60 cell line screen, 48 h
EKVX = tested on: EKVX
SF-268 = tested on: SF-268
COLO 205 = tested on: COLO 205
KM12 = tested on: KM12
MDA-MB-231 = tested on: MDA-MB-231
BT-549 = tested on: BT-549
SK-MEL-28 = tested on: SK-MEL-28
CCRF-CEM = tested on: CCRF-CEM
NCI-H460 = tested on: NCI-H460
A498 = tested on: A498
HCT-15 = tested on: HCT-15
MDA-N = tested on: MDA-N
HT-29 = tested on: HT-29
SNB-75 = tested on: SNB-75
SK-MEL-2 = tested on: SK-MEL-2
U-251 = tested on: U-251
DU-145 = tested on: DU-145
SF-539 = tested on: SF-539
SK-MEL-5 = tested on: SK-MEL-5

| SMILES | GI50 (EKVX) | GI50 (SF-268) | GI50 (COLO 205) | GI50 (KM12) | GI50 (MDA-MB-231) | GI50 (BT-549) | GI50 (SK-MEL-28) | GI50 (CCRF-CEM) | GI50 (NCI-H460) | GI50 (A498) | GI50 (HCT-15) [µM] | GI50 (MDA-N) | GI50 (HT-29) | GI50 (SNB-75) | GI50 (SK-MEL-2) | GI50 (U-251) | GI50 (DU-145) | GI50 (SF-539) | GI50 (SK-MEL-5) |
| --- | --- | --- | --- | --- | --- | --- | --- | --- | --- | --- | --- | --- | --- | --- | --- | --- | --- | --- | --- |
| COc1ccc(C(c2ccc(OC)cc2)N2C(=O)CCC2C(=O)O)cc1 (stereo not given) | > 100 µM (inactive) | > 100 µM (inactive) | > 100 µM (inactive) | > 100 µM (inactive) | > 100 µM (inactive) | > 100 µM (inactive) | > 100 µM (inactive) | > 100 µM (inactive) | > 100 µM (inactive) | > 100 µM (inactive) | > 100 | > 100 µM (inactive) | > 100 µM (inactive) | > 100 µM (inactive) | > 100 µM (inactive) | > 100 µM (inactive) | > 100 µM (inactive) | > 100 µM (inactive) | > 100 µM (inactive) |
| O=C(O)CCC(=O)c1ccc2sc3ccccc3c2c1 | > 100 µM (inactive) | > 100 µM (inactive) | > 100 µM (inactive) | > 100 µM (inactive) | > 100 µM (inactive) | > 100 µM (inactive) | > 100 µM (inactive) | 0.225 µM (active) | > 100 µM (inactive) | 27.9 µM (inactive) | > 100 | > 100 µM (inactive) | > 100 µM (inactive) | > 100 µM (inactive) | > 100 µM (inactive) | > 100 µM (inactive) | > 100 µM (inactive) | > 100 µM (inactive) | > 100 µM (inactive) |
| COc1cc2cc(C(=O)N3CC(CCl)c4c3cc(N)c3ccccc43)[nH]c2c(OC)c1OC (stereo not given) | < 0.01 µM (active) | < 0.01 µM (active) | < 0.01 µM (active) | < 0.01 µM (active) | < 0.01 µM (active) | < 0.01 µM (active) | < 0.01 µM (active) | < 0.01 µM (active) | < 0.01 µM (active) | < 0.01 µM (active) | < 0.01 | < 0.01 µM (active) | < 0.01 µM (active) | < 0.01 µM (active) | < 0.01 µM (active) | < 0.01 µM (active) | < 0.01 µM (active) | < 0.01 µM (active) | < 0.01 µM (active) |
| CCN1C=C/C(=C\C=C\c2cc[n+](CC)c3ccccc23)c2ccccc21 | 18.9 µM (inactive) | 4.99 µM (inactive) | 3.72 µM (inactive) | 3.42 µM (inactive) | 3.31 µM (inactive) | 20.7 µM (inactive) | 8.99 µM (inactive) | 4.52 µM (inactive) | 3.4 µM (inactive) | 3.78 µM (inactive) | 16.4 | 7.01 µM (inactive) | 3.51 µM (inactive) | 2.64 µM (inactive) | 7.62 µM (inactive) | 3.8 µM (inactive) | 4.92 µM (inactive) | 3.39 µM (inactive) | 8.99 µM (inactive) |
| O=C(C1OC1c1ccc(O)cc1)C12CC3CC(CC(C3)C1)C2 (stereo not given) | > 58.1 µM (inactive) | > 87.1 µM (inactive) | 29.5 µM (inactive) | 98.9 µM (inactive) | > 100 µM (inactive) | 31.2 µM (inactive) | > 100 µM (inactive) | 5.92 µM (inactive) | > 80.9 µM (inactive) | > 69.8 µM (inactive) | 53.2 | > 57.1 µM (inactive) | > 100 µM (inactive) | > 100 µM (inactive) | > 100 µM (inactive) | > 76 µM (inactive) | > 100 µM (inactive) | 45 µM (inactive) | 61.7 µM (inactive) |
| O=C1Nc2ccccc2NC1C1OC(c2ccccc2)=CC1=O (stereo not given) | > 100 µM (inactive) | > 100 µM (inactive) | > 100 µM (inactive) | > 100 µM (inactive) | > 100 µM (inactive) | > 100 µM (inactive) | > 100 µM (inactive) | > 100 µM (inactive) | > 100 µM (inactive) | > 100 µM (inactive) | > 100 | > 100 µM (inactive) | > 100 µM (inactive) | > 100 µM (inactive) | > 100 µM (inactive) | > 100 µM (inactive) | > 100 µM (inactive) | > 100 µM (inactive) | > 100 µM (inactive) |
| C=C(C)CCC(=O)[C@](C)(O)[C@H]1[C@H](O)C[C@@]2(C)[C@@H]3CCc4c(cc(OC5OC(CO)C(O)C(O)C5O)c(O)c4C)C3(C)C(=O)C[C@]12C (stereo not given in full) | > 100 µM (inactive) | > 100 µM (inactive) | > 100 µM (inactive) | > 100 µM (inactive) | > 100 µM (inactive) | > 100 µM (inactive) | > 100 µM (inactive) | > 100 µM (inactive) | > 100 µM (inactive) | > 100 µM (inactive) | > 100 | > 100 µM (inactive) | > 100 µM (inactive) | > 100 µM (inactive) | > 100 µM (inactive) | > 100 µM (inactive) | > 100 µM (inactive) | > 100 µM (inactive) | > 100 µM (inactive) |
| COC(=O)C1=C(OC(=O)/C(=C/c2ccccc2)c2ccc([N+](=O)[O-])cc2)C(C(=O)OC)[C@@]2(O)[C@@H](C(=O)OC)[C@H](C)C[C@@H]1[C@@H]2C(=O)OC (stereo not given in full) | > 100 µM (inactive) | > 100 µM (inactive) | > 100 µM (inactive) | > 100 µM (inactive) | > 100 µM (inactive) | 31.1 µM (inactive) | > 100 µM (inactive) | 12.9 µM (inactive) | > 100 µM (inactive) | > 100 µM (inactive) | > 100 | > 100 µM (inactive) | > 100 µM (inactive) | 72.9 µM (inactive) | > 100 µM (inactive) | > 100 µM (inactive) | > 100 µM (inactive) | 51.5 µM (inactive) | > 100 µM (inactive) |
| CCCCn1cc(C(=O)O)c(=O)c2c3sccc3ccc21 | > 100 µM (inactive) | > 100 µM (inactive) | > 100 µM (inactive) | > 100 µM (inactive) | > 100 µM (inactive) | > 100 µM (inactive) | > 100 µM (inactive) | > 100 µM (inactive) | > 100 µM (inactive) | > 100 µM (inactive) | 47 | > 100 µM (inactive) | > 100 µM (inactive) | 25.8 µM (inactive) | > 100 µM (inactive) | 6.73 µM (inactive) | > 100 µM (inactive) | > 100 µM (inactive) | > 100 µM (inactive) |
| O=C(NCCCNCCCNC(=O)c1cc(-c2ccccc2)nc2ccccc12)c1cc(-c2ccccc2)nc2ccccc12 | 1.68 µM (inactive) | 1.83 µM (inactive) | 1.9 µM (inactive) | 1.99 µM (inactive) | 2.01 µM (inactive) | 10.2 µM (inactive) | 1.77 µM (inactive) | 1.63 µM (inactive) | 1.75 µM (inactive) | 1.93 µM (inactive) | 2.6 | 1.89 µM (inactive) | 1.75 µM (inactive) | 1.49 µM (inactive) | 2 µM (inactive) | 1.69 µM (inactive) | 1.59 µM (inactive) | 2.47 µM (inactive) | 1.78 µM (inactive) |
| CCOP(=O)(OCC)Oc1c(OC)c2[nH]c(C(=O)OC)cc2c2c(C(=O)O)c[nH]c12 | > 100 µM (inactive) | > 100 µM (inactive) | > 100 µM (inactive) | 28.6 µM (inactive) | > 100 µM (inactive) | > 100 µM (inactive) | > 100 µM (inactive) | > 100 µM (inactive) | > 100 µM (inactive) | > 100 µM (inactive) | > 100 | > 100 µM (inactive) | > 100 µM (inactive) | > 100 µM (inactive) | > 100 µM (inactive) | > 100 µM (inactive) | > 100 µM (inactive) | > 100 µM (inactive) | > 100 µM (inactive) |
| CC1(c2cccs2)CC(c2cccs2)=C(C#N)C(=C(C#N)C#N)N1 (stereo not given) | 18.1 µM (inactive) | 18.2 µM (inactive) | 16.9 µM (inactive) | 17.1 µM (inactive) | 23.5 µM (inactive) | 21.5 µM (inactive) | 20.4 µM (inactive) | 0.519 µM (active) | 20.2 µM (inactive) | 18.7 µM (inactive) | 16.4 | 16.7 µM (inactive) | 17.9 µM (inactive) | 18.8 µM (inactive) | 17.8 µM (inactive) | 15.8 µM (inactive) | 15.6 µM (inactive) | 25.2 µM (inactive) | 14.6 µM (inactive) |
| Cc1ccc2[nH]/c(=N/S(=O)(=O)c3cc(C)c(Cl)cc3S)[nH]c2c1 | 31.9 µM (inactive) | 39.8 µM (inactive) | 58.5 µM (inactive) | 41.6 µM (inactive) | > 100 µM (inactive) | > 100 µM (inactive) | 45.7 µM (inactive) | 21.4 µM (inactive) | 16.4 µM (inactive) | 52.8 µM (inactive) | 67.9 | 87.5 µM (inactive) | > 100 µM (inactive) | 25.1 µM (inactive) | 78.3 µM (inactive) | 24 µM (inactive) | > 100 µM (inactive) | 74.3 µM (inactive) | 31.3 µM (inactive) |
| O=C1N[C@@H]2c3c(Br)sc(Br)c3C(=O)[C@@H]2N1 | 4.08 µM (inactive) | 3.33 µM (inactive) | 3.78 µM (inactive) | 5.28 µM (inactive) | 4.83 µM (inactive) | 17 µM (inactive) | 3.78 µM (inactive) | 0.678 µM (active) | 6.44 µM (inactive) | 17.3 µM (inactive) | 3.16 | 2.08 µM (inactive) | 2.82 µM (inactive) | 7.73 µM (inactive) | 4.82 µM (inactive) | 2.53 µM (inactive) | 5.86 µM (inactive) | 2.52 µM (inactive) | 9.29 µM (inactive) |
| Oc1cc(Cc2ccccc2)c(Cc2ccccc2)cc1O | > 10 µM (inactive) | > 10 µM (inactive) | > 10 µM (inactive) | > 10 µM (inactive) | > 10 µM (inactive) | > 10 µM (inactive) | > 10 µM (inactive) | > 10 µM (inactive) | > 10 µM (inactive) | > 10 µM (inactive) | > 10 | 1.67 µM (inactive) | > 10 µM (inactive) | 4.62 µM (inactive) | > 10 µM (inactive) | > 10 µM (inactive) | > 10 µM (inactive) | > 10 µM (inactive) | > 10 µM (inactive) |
